The source of these data is PMC12202533, “Mechanistic Insights and Anti-cancer Activity of 2H-benzo[b][1,4]oxazin-3(4H)-one Linked 1,2,3-Triazoles in Human Cancer Cells” (Frontiers in Pharmacology, 2025).

Data set [1] has as its system A549 cells. Description: Cellular ROS level measurement (DCFH-DA). Type of data set: cell-based, human. Particulars: A549, 5, 10 or 20 μM, 24 h. An excerpt:
Intracellular reactive oxygen species (ROS) generation will result in mitochondrial membrane damage and further induce cell apoptosis and cell death. To determine whether compounds 14b and 14c could induce ROS generation, we treated A549 cells with different doses of these two compounds and measured the intracellular ROS levels using the DCFH-DA peroxide-sensitive fluorescent dye. When DCFH-DA entered the cells, it would hydrolyze into DCFH by esterase and then convert to non-diffusible green fluorescent DCF by oxidation.
FIGURE 6 Compounds 14b and 14c increased ROS levels. A549 cells were treated with different concentrations of 14b (A) and 14c (B) (5 μM, 10 μM, or 20 μM) for 24 h. ROS levels were stained using DCFH-DA, observed by confocal microscopy, and analyzed by ImageJ. Data are presented as mean ± SEM, *P < 0.05.
A549 cells were seeded at a density of 5 × 10^3 cells per well in a 96-well plate and allowed to adhere overnight. Compounds were then added at concentrations of 0, 5, 10, and 20 μM for 24 h. After treatment, the medium was removed, and fresh medium without FBS but containing 10 μM DCFH-DA was added and incubated in the dark for 30 min. The cells were washed three times with FBS-free medium to remove excess probe. ROS levels were then measured and imaged using confocal microscopy.

The nature of data set [2]: CCK-8 cell viability assay, normal cell line. Type of data set: cell-based. Particulars: human, BEAS-2B cells (normal cell line), BEAS-2B normal cell line, read-out: Cell viability (100%), 40 μM, 48 h, BEAS-2B. As to the method: In order to investigate the anticancer activity of new synthetic 1,4-benzoxazinone-linked 1,2,3-triazole compounds, we chose several cancer cell lines, including A549 (lung), Huh7 (liver), MCF-7 (breast), HCT-116 (colon), and SKOV3 (ovary), and measured cell viability using the CCK-8 assay. Cells were exposed to 40 μM of the compounds for 48 h, and then cell viability was determined. […] In addition, we used the reference drug gefitinib as a positive control and measured its cell viability on different cell lines. […] We used BEAS-2B cells as a normal cell line to determine the toxic effects of these compounds on normal cells. […] Furthermore, we evaluated the IC50 of these compounds in A549.
Cells were cultured in DMEM or RPMI 1640 medium containing 10% FBS and 1% penicillin/streptomycin at 37°C and 5% CO2. The CCK-8 assay was performed on several human cancer cell lines, including A549, Huh7, MCF-7, HCT-116, and SKOV3, according to the manufacturer’s instructions. Cells were plated at a density of 5 × 10^3 cells per well in a 96-well plate. After 24 h of incubation, cells were treated with 40 μM compounds for 48 h. Cell viability was assessed by adding 10 μL of CCK-8 reagent, dissolved in the cell culture medium, and incubating for 1 h. Absorbance was measured at 450 nm using a microplate reader. IC50 values were determined using a dose-response curve with six concentrations (0, 10, 20, 40, 80, and 160 μM), and IC50 values were calculated using GraphPad Prism software.
In general terms: Tetrazolium assays rely on reduction of a dye to a coloured formazan, in cell work by metabolically active cells.

In data set [3] the test system is A549 cells. The experiment in a line: Autophagy staining assay (MDC probe). Type of data set: cell-based, human. Particulars: A549, 10, 20, and 30 μM, 24 h. On the procedure:
To further evaluate the role of 2H-1,4-benzoxazin-3(4H)-one-linked 1,2,3-Triazole derivatives in regulating autophagy, A549 cells were treated with different doses (10, 20, and 30 μM) of compounds 14b and 14c for 24 h, and the autophagosome was detected by MDC (monodansylcadaverine) probe.
A549 cells were seeded at a density of 2 × 10^3 cells per well in a 96-well plate and treated with compounds at concentrations of 0, 5, 10, 20, and 30 μM for 24 h. After treatment, the medium was replaced, and cells were stained with monodansylcadaverine for 1 h in the dark at 37°C. Cells were then imaged using a confocal microscope.

Data set [4] relates to A549 cells. The experiment in a line: Western blot analysis of autophagy, DNA damage and cell cycle proteins. Type of data set: cell-based, human. The following applies: A549, 5, 10, 20 μM, 48 h. On the procedure:
Next, we measured the expression of key proteins involved in autophagy, DNA damage, and cell cycle progression in 14b and 14c compound-exposed cells. After treatment for 48 h, cell proteins were collected and measured by Western blot. […] Proteins in cell cycle progression, including cyclin D, cyclin E, and β-catenin, however, were not affected in the 14 b compound exposure group compared with the control group. […] However, the key regulators involved in autophagy and cell cycle progression, such as LC3, cyclin D, cyclin E, and β-catenin, were not changed.
FIGURE 7 Compounds 14b and 14c affected DNA damage and autophagy. A549 cells were treated with different concentrations of 14b (A) and 14c (B) (5 μM, 10 μM, and 20 μM) for 48 h. Protein expressions were analyzed by Western blot. Top: Western blot of LC3, γ-H2AX, PARP, cyclin D, cyclin E, and β-catenin. Bottom: quantitative measurements relative to ACTIN. Data are presented as mean ± SEM, *P < 0.05.
The following antibodies were used for Western blot analysis: LC3, γ-H2AX, PARP, cyclin D, cyclin E, β-Catenin, and β-actin. Cells were treated with compounds (0, 5, 10, and 20 μM) for 48 h, and total cell proteins were extracted using RIPA buffer containing a protease/phosphatase inhibitor cocktail. Protein expression levels were measured and analyzed by Western blotting.

The subject of data set [5] is A549 cells. The experiment in a line: RT-PCR gene expression. Type of data set: cell-based, human. Particulars: A549, 10 μM, 48 h. As to the method: To investigate the molecular mechanisms underlying the anti-tumor activity of 2H-1,4-benzoxazin-3(4H)-one-linked 1,2,3-triazole derivatives, we examined the expression of key genes involved in cell growth and death, including those related to DNA damage, oxidative stress, apoptosis, and autophagy (Figure 5). Gene expression was assessed in A549 cells treated with 14b or 14c (10 μM) for 48 h. […] The regulation of gene expression is a complex process regulated by many signaling pathways, and these signaling pathways interact with each other, all of which lead to a change in gene expression, not all in the same direction. Although the DNA damage gene p21 was decreased, another key gene, H2AX, was increased, which may stimulate DNA damage. These findings in A549 cells align with the results observed following 14b and 14c treatments.
FIGURE 5 Compounds 14b and 14c increased the gene expression. A549 cells were treated with 14b (A) and 14c (B) (10 μM) for 48 h. Gene expressions were detected by RT-PCR. Data are presented as mean ± SEM, *P < 0.05.
A549 cells were seeded in 12-well plates and treated with compounds for 48 h. Total RNA was extracted using TRIzol reagent, and RT-PCR was performed using PowerUp™ SYBR™ Green Master Mix. Gene expression was normalized to GAPDH. The results are expressed as mean ± SEM, and statistical significance was assessed using a two-tailed Student’s t-test (P < 0.05).

For `O=C1COc2ccc(NC(=O)c3cccc(-c4cn(-c5cccc(Br)c5)nn4)c3)cc2N1` [Compound 14b], in data set [1], the ROS generation entry was “increased ROS generation”. Besides, in data set [2], the viability at 48 h, 40 µM came out at 93.2 ± 0.61%. Also, the “autophagy (autophagosome, MDC probe)” value in data set [3] is “autophagy was largely induced”. Besides, in data set [4], the PARP expression result is on record as “not changed”; the “cell cycle progression proteins cyclin D, cyclin E, and β-catenin” value is on record as “not affected”; the “ratio of LC3II to LC3I / LC3 (autophagy)” value was “increased”; the γ-H2AX protein expression entry is listed as “induced”. Moreover, in data set [5], the ATG7 gene expression result was “increased expression”, the Nrf2 gene expression entry is “increased expression” and the p53 gene expression entry was “increased expression”.

`O=C1COc2ccc(NC(=O)c3cccc(-c4cn(-c5ccccc5F)nn4)c3)cc2N1` [Compound 14c]: the ROS generation entry in data set [1] is “increased ROS generation”. In addition, the viability at 48 h, 40 µM in data set [2] stood at 105 ± 2.38%. In addition, the “autophagy (autophagosome, MDC probe)” value in data set [3] is reported as “autophagy was largely induced”. In data set [4], the “cell cycle progression proteins cyclin D, cyclin E, and β-catenin” value is recorded as “not changed”; the “ratio of LC3II to LC3I / LC3 (autophagy)” value is “not changed”; the γ-H2AX protein expression result is given as “increased expression”. Also, in data set [5], the ATG7 gene expression result is given as “upregulated”, the Gpx4 gene expression result is recorded as “upregulated”, the H2AX gene expression result is given as “upregulated” and the apoptosis-related genes expression entry is “either downregulated or unchanged”.

What is called viability is a read-out of living cells in per cent, often relative to untreated cells.
